# Assay results: publication PMC2922070 (Journal of peptide science : an official publication of the …, 2009)
# What was measured:
# Type in all cases: biochemical
# MLCK = MLCK (Homo sapiens, UniProt Q9H1R3); test: Radiometric kinase activity; settings: ± S.D. between two samples, SD
# PKBβ = PKBβ (Homo sapiens, UniProt P31751); test: Radiometric kinase activity; settings: SD; for Percentage kinase activity, PKBβ: peptide 300 μM, ± S.D. between two samples
# PKCδ = PKCδ (Homo sapiens, UniProt Q05655); test: Radiometric kinase activity; settings: ± S.D. between two samples, SD
# Chain of PKCδ (Q05655 whole entry): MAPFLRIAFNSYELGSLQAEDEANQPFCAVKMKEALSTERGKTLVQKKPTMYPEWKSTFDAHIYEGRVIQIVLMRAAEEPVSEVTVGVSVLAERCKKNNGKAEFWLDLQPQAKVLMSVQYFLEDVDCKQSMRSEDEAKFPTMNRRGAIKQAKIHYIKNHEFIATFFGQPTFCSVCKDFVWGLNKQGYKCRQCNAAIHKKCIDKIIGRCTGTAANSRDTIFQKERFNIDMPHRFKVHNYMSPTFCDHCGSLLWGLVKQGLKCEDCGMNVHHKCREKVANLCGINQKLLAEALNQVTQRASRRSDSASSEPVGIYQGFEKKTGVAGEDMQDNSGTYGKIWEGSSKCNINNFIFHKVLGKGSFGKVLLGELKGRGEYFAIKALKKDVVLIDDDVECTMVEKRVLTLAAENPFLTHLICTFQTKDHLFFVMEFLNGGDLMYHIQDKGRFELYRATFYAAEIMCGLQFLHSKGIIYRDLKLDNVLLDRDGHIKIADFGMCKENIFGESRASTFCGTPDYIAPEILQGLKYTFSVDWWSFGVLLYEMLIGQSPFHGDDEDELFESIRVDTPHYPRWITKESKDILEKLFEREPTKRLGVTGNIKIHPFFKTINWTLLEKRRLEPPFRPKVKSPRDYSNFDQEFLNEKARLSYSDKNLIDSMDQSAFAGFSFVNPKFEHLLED
# ROCK-I = ROCK-I (Homo sapiens, UniProt Q13464); test: Radiometric kinase activity; settings: ± S.D. between two samples, SD
# Chain of ROCK-I (Q13464 whole entry): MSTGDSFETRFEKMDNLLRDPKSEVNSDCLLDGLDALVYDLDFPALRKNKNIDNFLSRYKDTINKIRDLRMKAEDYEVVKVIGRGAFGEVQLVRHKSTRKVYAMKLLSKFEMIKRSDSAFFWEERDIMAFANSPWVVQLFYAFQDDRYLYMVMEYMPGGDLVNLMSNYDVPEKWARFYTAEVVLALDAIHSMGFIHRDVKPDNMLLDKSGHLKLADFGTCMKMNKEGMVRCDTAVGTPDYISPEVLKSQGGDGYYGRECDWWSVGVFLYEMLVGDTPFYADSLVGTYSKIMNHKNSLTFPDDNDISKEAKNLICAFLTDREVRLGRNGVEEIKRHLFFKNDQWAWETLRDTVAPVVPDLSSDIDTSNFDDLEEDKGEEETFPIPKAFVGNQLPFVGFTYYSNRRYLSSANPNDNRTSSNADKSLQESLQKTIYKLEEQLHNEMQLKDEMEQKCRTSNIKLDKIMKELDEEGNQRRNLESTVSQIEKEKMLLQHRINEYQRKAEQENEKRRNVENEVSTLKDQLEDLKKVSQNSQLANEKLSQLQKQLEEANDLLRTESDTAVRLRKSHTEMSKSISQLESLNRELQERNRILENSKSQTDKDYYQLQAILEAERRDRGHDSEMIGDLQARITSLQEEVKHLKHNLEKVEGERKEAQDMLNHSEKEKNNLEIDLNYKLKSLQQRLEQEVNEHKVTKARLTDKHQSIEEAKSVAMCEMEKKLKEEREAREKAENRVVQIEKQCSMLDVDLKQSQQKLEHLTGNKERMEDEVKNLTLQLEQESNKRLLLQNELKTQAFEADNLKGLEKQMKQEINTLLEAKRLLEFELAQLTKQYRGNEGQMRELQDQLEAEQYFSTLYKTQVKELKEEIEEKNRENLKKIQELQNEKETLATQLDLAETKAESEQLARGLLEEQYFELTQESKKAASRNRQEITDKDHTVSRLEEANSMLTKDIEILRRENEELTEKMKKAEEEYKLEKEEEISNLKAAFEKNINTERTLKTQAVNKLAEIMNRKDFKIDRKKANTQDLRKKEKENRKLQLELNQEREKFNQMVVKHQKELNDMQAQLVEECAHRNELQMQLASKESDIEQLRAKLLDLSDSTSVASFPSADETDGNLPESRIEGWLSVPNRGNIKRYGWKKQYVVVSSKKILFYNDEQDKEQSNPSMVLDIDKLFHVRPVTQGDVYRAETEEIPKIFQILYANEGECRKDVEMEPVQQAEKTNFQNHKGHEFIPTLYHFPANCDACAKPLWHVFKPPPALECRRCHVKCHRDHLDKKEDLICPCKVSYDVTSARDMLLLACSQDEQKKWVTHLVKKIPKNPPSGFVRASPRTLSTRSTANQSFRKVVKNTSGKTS
# CaMKI = CaMKI (Homo sapiens, UniProt Q14012); test: Radiometric kinase activity; settings: ± S.D. between two samples, SD
# Chain of CaMKI (Q14012 whole entry): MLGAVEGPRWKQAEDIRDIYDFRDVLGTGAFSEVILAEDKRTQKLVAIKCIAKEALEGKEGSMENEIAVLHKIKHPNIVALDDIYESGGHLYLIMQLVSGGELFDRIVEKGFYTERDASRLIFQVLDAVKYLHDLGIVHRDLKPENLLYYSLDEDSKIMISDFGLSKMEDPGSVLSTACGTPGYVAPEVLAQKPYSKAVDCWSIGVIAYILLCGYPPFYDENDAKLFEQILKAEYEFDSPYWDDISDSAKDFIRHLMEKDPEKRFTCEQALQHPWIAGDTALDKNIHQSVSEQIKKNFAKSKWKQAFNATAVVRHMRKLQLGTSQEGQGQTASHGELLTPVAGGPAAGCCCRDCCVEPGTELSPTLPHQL
# MK2 [1] = molecular target: T1, MK2 (Homo sapiens, UniProt P49137); test: Radiometric IC50 determination
# T1 sequence (P49137 whole entry): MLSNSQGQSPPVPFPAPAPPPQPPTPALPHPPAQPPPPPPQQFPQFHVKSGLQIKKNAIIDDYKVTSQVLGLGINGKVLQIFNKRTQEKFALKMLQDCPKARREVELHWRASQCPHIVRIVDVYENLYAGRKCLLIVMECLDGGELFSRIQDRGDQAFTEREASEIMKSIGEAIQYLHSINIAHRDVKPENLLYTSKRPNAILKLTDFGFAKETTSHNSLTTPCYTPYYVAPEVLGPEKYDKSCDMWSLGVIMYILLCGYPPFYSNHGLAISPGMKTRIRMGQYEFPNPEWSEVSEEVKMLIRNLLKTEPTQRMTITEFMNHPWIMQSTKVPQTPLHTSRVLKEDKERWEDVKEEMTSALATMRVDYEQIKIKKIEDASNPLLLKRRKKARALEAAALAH
# MK2 [2] = molecular target: T1, MK2; test: Radiometric kinase activity; settings: ± S.D. between two samples, SD
# MK3 = MK3 (Homo sapiens, UniProt Q16644); test: Radiometric kinase activity; settings: ± S.D. between two samples, SD
# Chain of MK3 (Q16644 whole entry): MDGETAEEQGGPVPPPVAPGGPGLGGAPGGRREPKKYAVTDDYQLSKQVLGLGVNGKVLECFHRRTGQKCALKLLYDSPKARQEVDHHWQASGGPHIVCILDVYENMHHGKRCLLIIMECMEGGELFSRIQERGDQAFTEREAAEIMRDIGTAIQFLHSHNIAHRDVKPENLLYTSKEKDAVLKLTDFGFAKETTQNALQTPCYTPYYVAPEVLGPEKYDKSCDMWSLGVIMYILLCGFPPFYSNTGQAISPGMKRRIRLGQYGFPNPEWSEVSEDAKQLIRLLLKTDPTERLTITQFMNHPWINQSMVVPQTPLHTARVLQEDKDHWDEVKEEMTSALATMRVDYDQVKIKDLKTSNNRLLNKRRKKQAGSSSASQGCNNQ
# SAPK2a (p38α) = SAPK2a (p38α) (Homo sapiens, UniProt Q16539); test: Radiometric kinase activity; settings: ± S.D. between two samples, SD
# Chain of SAPK2a (p38α) (Q16539 whole entry): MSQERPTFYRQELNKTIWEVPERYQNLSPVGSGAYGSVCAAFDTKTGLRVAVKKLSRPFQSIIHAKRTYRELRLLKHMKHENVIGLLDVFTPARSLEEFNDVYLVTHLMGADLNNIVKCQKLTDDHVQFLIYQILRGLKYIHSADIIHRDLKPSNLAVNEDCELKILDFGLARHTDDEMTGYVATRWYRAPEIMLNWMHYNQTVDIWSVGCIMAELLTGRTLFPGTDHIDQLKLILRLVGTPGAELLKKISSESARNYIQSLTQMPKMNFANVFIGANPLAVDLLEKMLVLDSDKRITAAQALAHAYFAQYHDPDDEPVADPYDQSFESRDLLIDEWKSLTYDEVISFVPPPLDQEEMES
# MK5 = molecular target: T2, MK5 (Homo sapiens, UniProt Q8IW41); test: Radiometric kinase activity; settings: ± S.D. between two samples, SD
# T2 sequence (Q8IW41 1-473): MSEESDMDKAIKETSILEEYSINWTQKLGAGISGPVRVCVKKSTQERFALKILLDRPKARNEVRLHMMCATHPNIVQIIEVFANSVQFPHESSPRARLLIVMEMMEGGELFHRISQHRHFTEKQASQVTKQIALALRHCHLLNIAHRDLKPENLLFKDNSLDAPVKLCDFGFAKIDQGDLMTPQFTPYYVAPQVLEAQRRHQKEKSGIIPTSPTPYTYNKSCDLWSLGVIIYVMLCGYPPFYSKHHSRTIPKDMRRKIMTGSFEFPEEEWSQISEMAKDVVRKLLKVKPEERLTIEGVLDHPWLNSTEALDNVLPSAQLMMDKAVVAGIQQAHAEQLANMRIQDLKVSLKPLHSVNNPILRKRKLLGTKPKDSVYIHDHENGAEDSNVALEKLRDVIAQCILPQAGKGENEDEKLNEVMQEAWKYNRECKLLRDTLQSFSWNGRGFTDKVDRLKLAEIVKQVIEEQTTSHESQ
# IRAK4 = molecular target: T3, IRAK4 (Homo sapiens, UniProt Q9NWZ3); test: Radiometric kinase activity; settings: ± S.D. between two samples, SD
# T3 sequence (Q9NWZ3 1-460): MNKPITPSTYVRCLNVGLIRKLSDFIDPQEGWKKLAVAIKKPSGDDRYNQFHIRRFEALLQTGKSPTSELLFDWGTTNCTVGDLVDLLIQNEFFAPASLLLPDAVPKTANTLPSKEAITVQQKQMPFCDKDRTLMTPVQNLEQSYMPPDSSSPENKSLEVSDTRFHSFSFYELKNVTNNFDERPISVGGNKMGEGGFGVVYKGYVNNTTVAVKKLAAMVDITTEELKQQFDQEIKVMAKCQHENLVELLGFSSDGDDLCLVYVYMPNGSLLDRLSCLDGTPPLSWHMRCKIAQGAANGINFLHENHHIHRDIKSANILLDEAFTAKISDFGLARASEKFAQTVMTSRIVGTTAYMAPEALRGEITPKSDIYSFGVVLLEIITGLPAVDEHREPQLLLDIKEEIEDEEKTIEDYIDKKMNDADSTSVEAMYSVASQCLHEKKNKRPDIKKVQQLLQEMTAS
# MK2 [3] = molecular target: T1, MK2; test: Fluorescence-based kinase activity assay
# [4] = read-out: Percentage kinase activity, PKBβ
# Chain of PKBβ (P31751 whole entry): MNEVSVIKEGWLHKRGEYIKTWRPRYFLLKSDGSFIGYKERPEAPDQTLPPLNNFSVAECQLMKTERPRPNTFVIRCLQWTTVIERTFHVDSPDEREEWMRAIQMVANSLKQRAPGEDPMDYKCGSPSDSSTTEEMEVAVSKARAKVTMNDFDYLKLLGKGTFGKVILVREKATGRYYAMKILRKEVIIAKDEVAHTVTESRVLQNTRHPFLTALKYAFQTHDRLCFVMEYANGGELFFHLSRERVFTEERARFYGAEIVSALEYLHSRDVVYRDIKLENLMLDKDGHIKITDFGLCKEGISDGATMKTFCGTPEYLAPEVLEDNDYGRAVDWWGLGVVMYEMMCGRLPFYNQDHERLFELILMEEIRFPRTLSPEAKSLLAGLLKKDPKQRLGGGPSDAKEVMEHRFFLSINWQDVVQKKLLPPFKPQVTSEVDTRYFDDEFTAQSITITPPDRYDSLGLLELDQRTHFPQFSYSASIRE
# Chain of MLCK (Q9H1R3 2-596): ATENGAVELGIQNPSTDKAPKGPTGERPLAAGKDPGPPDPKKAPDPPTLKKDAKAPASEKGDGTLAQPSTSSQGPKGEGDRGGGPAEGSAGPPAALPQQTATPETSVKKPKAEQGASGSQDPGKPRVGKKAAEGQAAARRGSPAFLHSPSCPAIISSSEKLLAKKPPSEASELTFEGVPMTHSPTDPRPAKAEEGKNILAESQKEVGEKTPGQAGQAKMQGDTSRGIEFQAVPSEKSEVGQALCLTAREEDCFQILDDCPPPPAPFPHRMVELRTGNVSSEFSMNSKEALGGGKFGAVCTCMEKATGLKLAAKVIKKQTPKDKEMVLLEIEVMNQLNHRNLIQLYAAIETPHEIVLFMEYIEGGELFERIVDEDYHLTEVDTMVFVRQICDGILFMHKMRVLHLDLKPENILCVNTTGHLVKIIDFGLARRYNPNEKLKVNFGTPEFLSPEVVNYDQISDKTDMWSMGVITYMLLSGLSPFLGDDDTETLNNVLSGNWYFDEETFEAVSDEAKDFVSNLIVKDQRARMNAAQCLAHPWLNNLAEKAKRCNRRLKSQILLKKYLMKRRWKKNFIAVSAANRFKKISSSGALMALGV
Molecule,"Percentage kinase activity, MLCK (MLCK; peptide 100 μM)",activity at 100 µM (PKBβ; [4]),"Percentage kinase activity, PKCδ (PKCδ; peptide 100 μM)","Percentage kinase activity, ROCK-I (ROCK-I; peptide 100 μM)","Percentage kinase activity, CaMKI (CaMKI; peptide 100 μM)",IC50 (MK2 [1]),"Percentage kinase activity, MK2 (MK2 [2]; peptide 100 μM)","Percentage kinase activity, MK3 (MK3; peptide 100 μM)","Percentage kinase activity, SAPK2a (p38α) (SAPK2a (p38α); peptide 100 μM)","Percentage kinase activity, MK5 (MK5; peptide 100 μM)","Percentage kinase activity, IRAK4 (IRAK4; peptide 100 μM)","Percentage kinase activity, PKBβ (PKBβ)","Percentage kinase activity, MK2 (MK2 [2]; peptide 300 μM)","Percentage kinase activity, MK3 (MK3; peptide 300 μM)","Percentage kinase activity, MK5 (MK5; peptide 300 μM)",further results
CC(C)C[C@H](NC(=O)[C@H](C)NC(=O)[C@H](CCCCN)NC(=O)[C@H](CCCNC(=N)N)NC(=O)[C@H](Cc1ccc(O)cc1)NC(=O)[C@H](CC(C)C)NC(=O)[C@H](CCCNC(=N)N)NC(=O)[C@H](C)NC(=O)[C@H](C)NC(=O)[C@H](CC(C)C)NC(=O)[C@H](CCCCN)NC(=O)[C@H](C)NC(=O)[C@@H](N)Cc1ccccc1)C(=O)N[C@@H](C)C(=O)N[C@@H](CCCNC(=N)N)C(=O)N[C@@H](CCC(N)=O)C(=O)N[C@@H](CC(C)C)C(=O)NCC(=O)N[C@H](C(=O)N[C@@H](C)C(=O)N[C@@H](C)C(N)=O)C(C)C,1 ± 1%,16 ± 5%,40 ± 2%,25 ± 2%,0 ± 2%,1.8 µM,5 ± 2%,10 ± 1%,30 ± 6%,131 ± 4%,13 ± 4%,,,,,
YGRKKRRQRRR,,,,,,,,,,,,,,,,inhibition of MK2 activity (MK2 [3]; peptide 25 μM): 47.7%; inhibition of MK2 activity (MK2 [3]; peptide 100 μM): 61.2%
YARAAARQARAKALARQLGVAA,,,,,,,,,,,,17 ± 2%,0 ± 0%,5 ± 1%,86 ± 2%,"Percentage kinase activity, MLCK (MLCK; peptide 300 μM): 9 ± 0%"
CC(C)C[C@H](NC(=O)[C@H](C)NC(=O)[C@H](CCCCN)NC(=O)[C@H](CCCNC(=N)N)NC(=O)[C@H](Cc1ccc(O)cc1)NC(=O)[C@H](CC(C)C)NC(=O)[C@H](CCCNC(=N)N)NC(=O)[C@H](C)NC(=O)[C@H](C)NC(=O)[C@H](CC(C)C)NC(=O)[C@H](CCCCN)NC(=O)[C@H](C)NC(=O)[C@H](Cc1ccccc1)NC(=O)[C@H](C)NC(=O)[C@@H](N)CCCCN)C(=O)N[C@@H](C)C(=O)N[C@@H](CCCNC(=N)N)C(=O)N[C@@H](CCC(N)=O)C(=O)N[C@@H](CC(C)C)C(=O)NCC(=O)N[C@H](C(=O)N[C@@H](C)C(=O)N[C@@H](C)C(N)=O)C(C)C,2 ± 0%,28 ± 4%,24 ± 3%,29 ± 0%,0 ± 2%,4.4 µM,8 ± 1%,17 ± 1%,59 ± 8%,148 ± 4%,16 ± 2%,,,,,
CC[C@H](C)[C@H](NC(=O)[C@H](CCCNC(=N)N)NC(=O)[C@H](CCCNC(=N)N)NC(=O)[C@H](CC(C)C)NC(=O)[C@H](Cc1c[nH]c2ccccc12)NC(=O)[C@H](C)NC(=O)[C@H](CCCCN)NC(=O)[C@@H](NC(=O)[C@H](CCCNC(=N)N)NC(=O)[C@H](CCCNC(=N)N)NC(=O)[C@H](CC(C)C)NC(=O)[C@@H](N)Cc1c[nH]c2ccccc12)[C@@H](C)CC)C(=O)N[C@@H](CCCCN)C(=O)N[C@@H](C)C(=O)N[C@@H](CC(C)C)C(=O)N[C@@H](CC(N)=O)C(=O)N[C@@H](CCCNC(=N)N)C(=O)N[C@@H](CCC(N)=O)C(=O)N[C@@H](CC(C)C)C(=O)NCC(=O)N[C@H](C(=O)N[C@@H](C)C(=O)N[C@@H](C)C(N)=O)C(C)C,,,,,,0.74 µM,,,,,,,,,,"Percentage kinase activity, MLCK (MLCK; peptide 30 μM): 4 ± 1%; activity at 30 µM (PKBβ; [4]): 18 ± 2%; Percentage kinase activity, PKCδ (PKCδ; peptide 30 μM): 11 ± 0%; Percentage kinase activity, ROCK-I (ROCK-I; peptide 30 μM): 0 ± 1%; Percentage kinase activity, CaMKI (CaMKI; peptide 30 μM): 9 ± 1%; Percentage kinase activity, MK2 (MK2 [2]; peptide 30 μM): 2 ± 1%; Percentage kinase activity, MK3 (MK3; peptide 30 μM): 16 ± 2%; Percentage kinase activity, SAPK2a (p38α) (SAPK2a (p38α); peptide 30 μM): 61 ± 7%; Percentage kinase activity, MK5 (MK5; peptide 30 μM): 67 ± 9%; Percentage kinase activity, IRAK4 (IRAK4; peptide 30 μM): 12 ± 1%"
YARAAARQARAKALNRQLGVAA,,,,,,,,,,,,96 ± 1%,10 ± 3%,19 ± 3%,81 ± 3%,"Percentage kinase activity, PKCδ (PKCδ; peptide 300 μM): 105 ± 2%; Percentage kinase activity, ROCK-I (ROCK-I; peptide 300 μM): 95 ± 7%; Percentage kinase activity, CaMKI (CaMKI; peptide 300 μM): 8 ± 1%; Percentage kinase activity, SAPK2a (p38α) (SAPK2a (p38α); peptide 300 μM): 100 ± 6%; Percentage kinase activity, IRAK4 (IRAK4; peptide 300 μM): 68 ± 3%"
